Patent US11407719B2, “Anti-inflammatory agents” (Resverlogix Corp., priority 2009, dated 2022)

How the values were obtained:
[1] = tested on: hIL-6 mRNA; test: Quantification of hIL-6 mRNA; assay type: cell-based, human; design: key: Active: an active compound is one that causes a ≥20% inhibition in IL-6 mRNA at a concentration less than or equal to 10 μM; conditions: IL-6 mRNA by real-time PCR; differentiated U937 cells, 1 h pretreatment, lipopolysaccharide stimulation 3 h; concentration ≤10 μM
How it was run: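 U937 cells, differentiated for 3 days, were pretreated with compound for 1 h and then stimulated with E. coli LPS for 3 h at 37 °C. IL-6 mRNA was quantified by one-step qRT-PCR, with Ct normalized to an internal control, and fold induction was expressed relative to control.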

[2] = tested on: VCAM-1 mRNA; test: Quantification of hVCAM mRNA; assay type: cell-based, human; design: key: Active: an active compound is one that causes a ≥20% inhibition in VCAM-1 mRNA at a concentration less than or equal to 10 μM; -1 mRNA at a concentration less than or equal to 10 μM; conditions: VCAM-1 mRNA by real-time PCR; HUVECs, 1 h pretreatment, tumor necrosis factor-α stimulation 24 h; concentration ≤10 μM
How it was run: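 HUVECs were pretreated 1 h with compound, then stimulated with TNF-α and harvested 24 h later. Isolated mRNA went into one-step qRT-PCR. hVCAM Ct values were normalized to an internal control and expressed as fold induction relative to control.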

SMILES	Inhibition of IL-6 expression [1]	Inhibition of VCAM-1 expression [2]	melting point
COc1cc(OCCOCc2ccccc2)cc2nc(-c3ccncc3)[nH]c(=O)c12 [7-(2-(Benzyloxy)ethoxy)-5-methoxy-2-(pyridin-4-yl)quinazolin-4(3H)-one]	Active	Active	228.2 to 229.9 °C
Cc1cc(-c2nc3ccc(CN4CCOCC4)cc3c(=O)[nH]2)ccn1 [2-(2-methylpyridin-4-yl)-6-(morpholinomethyl)quinazolin-4(3H)-one]	Active	Inactive	267 to 268 °C
COc1cc(OC)c2c(=O)[nH]c(-c3cc(C)c(OCCN4CCCC4)c(C)c3)nc2n1 [2-(3,5-Dimethyl-4-(2-(pyrrolidin-1-yl)ethoxy)phenyl)-5,7-dimethoxypyrido[2,3-d]pyrimidin-4(3H)-one]	Active	Active	228 to 230 °C
Cc1cc(-c2nc3cc(Cl)cc(Cl)c3c(=O)[nH]2)cc(C)c1OCCN1CCCC1 [5,7-Dichloro-2-(3,5-dimethyl-4-(2-(pyrrolidin-1-yl)ethoxy)phenyl)quinazolin-4(3H)-one]	Active	Active	209 to 210 °C
COc1cc(OC)c2c(=O)[nH]c(-c3cc(C)cc(OCCO)c3)nc2c1 [2-(3-(2-Hydroxyethoxy)-5-methylphenyl)-5,7-dimethoxyquinazolin-4(3H)-one]	Active	Active	106.9 to 109.1 °C
COc1cccc2nc(-c3cc(C)c(OCCN4CCCC4)c(C)c3)[nH]c(=O)c12 [2-(3,5-Dimethyl-4-(2-(pyrrolidin-1-yl)ethoxy)phenyl)-5-methoxyquinazolin-4(3H)-one]	Active	Active	157 to 158 °C
COc1ccc2nc(-c3cc(C)c(OCCN4CCCC4)c(C)c3)[nH]c(=O)c2c1 [2-(3,5-Dimethyl-4-(2-(pyrrolidin-1-yl)ethoxy)phenyl)-6-methoxyquinazolin-4(3H)-one]	Active	Active	201.2 to 203.1 °C
COc1cc(OCCNC(C)=O)cc(-c2nc3cc(OC)cc(OC)c3c(=O)[nH]2)c1 [N-(2-(3-(5,7-dimethoxy-4-oxo-3,4-dihydroquinazolin-2-yl)-5-methoxyphenoxy)ethyl)acetamide]	Active	Active	264 to 265 °C
COc1cc(OC)c2c(=O)[nH]c(-c3cc(C)c(OCCN4CCN(C(C)=O)CC4)c(C)c3)nc2c1 [2-(4-(2-(4-Acetylpiperazin-1-yl)ethoxy)-3,5-dimethylphenyl)-5,7-dimethoxyquinazolin-4(3H)-one]	Active	Active	213 to 214 °C
COc1cc(OC)c2c(=O)[nH]c(-c3cc(C)c(OCCN4CCN(C)CC4)c(C)c3)nc2c1 [2-(3,5-Dimethyl-4-(2-(4-methylpiperazin-1-yl)ethoxy)phenyl)-5,7-dimethoxyquinazolin-4(3H)-one]	Active	Active	180 to 182 °C
COc1cc(OC)c2c(=O)[nH]c(-c3cc(C)c(CCCN4CCCC4)c(C)c3)nc2c1 [2-(3,5-Dimethyl-4-(3-(pyrrolidin-1-yl)propyl)phenyl)-5,7-dimethoxyquinazolin-4(3H)-one]	Active	Active	194 to 196 °C
